Experiments:
[1] = molecular target: T1, nomacopan (EV576, rVA576, OmCI protein, Coversin), Ornithodoros moubata, amino acids 19 to 168 of SEQ ID NO: 2 (SEQ ID NO: 4) (Ornithodoros moubata, UniProt Q5YD59); experiment: LTB4 binding by fluorescence titration (protein Tyr/Trp fluorescence quenching)
T1 sequence (Q5YD59 19-168): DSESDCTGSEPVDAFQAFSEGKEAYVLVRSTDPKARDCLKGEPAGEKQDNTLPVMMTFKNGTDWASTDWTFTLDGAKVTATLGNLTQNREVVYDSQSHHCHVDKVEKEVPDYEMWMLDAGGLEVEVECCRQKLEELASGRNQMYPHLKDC
Method: This may be carried out as follows:
Purified 100 nM solutions of nomacopan, in 2 mL PBS were applied in a quartz cuvette (10 mm path length; Hellma, Mülheim, Germany) equipped with a magnetic stirrer. Temperature was adjusted to 20° C. and, after equilibrium was reached, protein Tyr/Trp fluorescence was excited at 280 nm (slit width: 15 nm). The fluorescence emission was measured at 340 nm (slit width: 16 nm) corresponding to the emission maximum. […] For calculation of the KD value, data was normalized to an initial fluorescence intensity of 100%, the inner filter effect was corrected using a titration of 3 μM N-acetyl-tryptophanamide solution and data was plotted against the corresponding ligand concentration. Then, non-linear least squares regression based on the law of mass action for bimolecular complex formation was used to fit the data with Origin software version 8.5 (OriginLab, Northampton, Mass., USA) using a published formula (Breustedt et al., 2006).

[2] = test system: experimental autoimmune uveitis (EAU) in C57/B16 mice; experiment: Experimental autoimmune uveitis (EAU), topical treatment, clinical score by fundoscopy; assay type: in vivo, mouse; conditions: twice daily 2-5 μl for 7 days, Maxidex, day 21 post immunization, n=12 eyes

| SMILES | Kd [1] [nM] | clinical score compared with L-nomacopan treated mice [2] |
| --- | --- | --- |
| CCCCC/C=C\C[C@@H](O)/C=C/C=C/C=C\[C@@H](O)CCCC(=O)O [LTB4, Leukotriene B4] | 0.2 to 0.3 | – |
| C[C@@H]1C[C@H]2[C@@H]3CCC4=CC(=O)C=C[C@]4(C)[C@@]3(F)[C@@H](O)C[C@]2(C)[C@@]1(O)C(=O)CO [dexamethasone] | – | in line with |

— patent US20220211810A1 (priority 2019, published 2022)
